# Assay results taken from publication PMC9686568, “Novel Alligator Cathelicidin As-CATH8 Demonstrates Anti-Infective Activity against Clinically Relevant and Crocodylian Bacterial Pathogens” (Antibiotics, 2022).
# Where two headings read alike, the source gives them in different places. Residues, ends and D or L forms follow the SMILES beside them.
# Key:
# [1] = test system: E. faecium; assay: MIC, broth microdilution in MHB; format: cell-based, E. faecium #1-1; details: first concentration without visible growth, mode of at least three independent experiments
# Protocol: (§1) The following bacterial pathogens were used in this study: S. enterica subsp. enterica serovar Typhimurium ATCC 14028, E. coli O157:H7 [83], the clinical isolates S. aureus SAP0017 [84] and USA300 LAC [85], E. faecium #1-1 [85], A. baumannii Ab5075 [85] and E. cloacae 218R1 [85], as well as P. aeruginosa PAO1 [34], P. vulgaris HSC7200-T2 (Hancock Lab strain collection) and K. pneumoniae KPLN49 [85].
# (§2) Overnight cultures were grown in LB at 37 °C with shaking at 250 rpm, except for E. faecium, which was grown in BHI medium.
# (§3) The antimicrobial activity of the crocCATHs was evaluated with the broth microdilution method as described previously. MIC was defined as the first peptide or antibiotic concentration without visible bacterial growth. Reported values are the statistical mode of at least three independent experiments.
# [2] = test system: S. aureus; assay: MIC, broth microdilution in MHB; format: cell-based; details: first concentration without visible growth, mode of at least three independent experiments
# Protocol: as §1, §2, §3
# [3] = test system: A. baumannii; assay: MIC, broth microdilution in MHB; format: cell-based, A. baumannii Ab5075; details: first concentration without visible growth, mode of at least three independent experiments
# Protocol: as §1, §2, §3
# [4] = test system: S. Typhimurium; format: cell-based, S. enterica subsp. enterica serovar Typhimurium ATCC 14028
# Protocol: as §1, §2, §3
# [5] = test system: K. pneumoniae; assay: MIC, broth microdilution in MHB; format: cell-based, K. pneumoniae KPLN49; details: first concentration without visible growth, mode of at least three independent experiments
# Protocol: as §1, §2, §3
# [6] = test system: E. coli biofilm; format: cell-based, E. coli O157:H7; details: BM2 minimal medium + 0.4% glucose, crystal violet, at least 95% inhibition of mean biofilm growth, at least three independent experiments
# Protocol: (§4) Bacterial biofilm inhibition assays were performed using a microtiter assay as described by Haney et al.. For E. cloacae, E. coli, P. aeruginosa and S. Typhimurium, assays were performed using BM2 minimal medium (62 mM potassium phosphate, 7 mM ammonium sulfate, 0.5 mM magnesium sulfate, pH 7.0) supplemented with 0.4% glucose (w/v). Antibiofilm activity against A. baumannii and S. aureus SAP0017 was evaluated in 10% TSB (v/v) media supplemented with 0.1% glucose (w/v), whereas 10% THB (v/v) medium was employed for P. vulgaris.
# (§5) Data from at least three independent experiments were analyzed as the percentage of biofilm mass compared to the untreated control. After crystal violet staining, MBIC95 was then calculated for each peptide, defined as the minimal peptide concentration capable of inhibiting mean biofilm growth by at least 95% compared to the untreated control.
# [7] = test system: E. coli; format: cell-based, E. coli O157:H7; details: microdilution in MHB, first concentration without visible growth, mode of at least three independent experiments
# Protocol: as §1, §2, §3
# [8] = test system: P. aeruginosa biofilm; format: cell-based, P. aeruginosa PAO1
# Protocol: as §4, §5
# [9] = test system: E. cloacae; format: cell-based, E. cloacae 218R1
# Protocol: as §1, §2, §3
# [10] = test system: P. aeruginosa; assay: MIC, broth microdilution in MHB; format: cell-based, P. aeruginosa PAO1; details: first concentration without visible growth, mode of at least three independent experiments
# Protocol: as §1, §2, §3
# [11] = test system: P. vulgaris; format: cell-based, P. vulgaris HSC7200-T2; details: microdilution in MHB, first concentration without visible growth, mode of at least three independent experiments
# Protocol: as §1, §2, §3
# [12] = subcutaneous, 15 mg/kg, peptide alone, uninfected animals
# Description: The antibacterial capacities of As-CATH8 and Gg-CATH5 were further evaluated in the murine skin infection/abscess model. Mice were inoculated with clinical isolates of S. aureus and A. baumannii, two frequent causes of human skin infections. […] Therefore, the peptides were considered non-toxic at the doses used.
# [13] = test system: peripheral blood mononuclear cells (PBMCs); assay: LDH release cytotoxicity assay; format: cell-based; details: human PBMCs; at the highest concentrations tested (5 and 10 μM); relative to Triton X-100 control
# Protocol: Human PBMCs were isolated from human blood following the ethics protocols of the University of British Columbia, Canada. Consent was obtained from healthy volunteers before blood donation. Isolation and treatment of unstimulated PBMC was performed as previously described.
# (§6) Peptide-induced cytotoxicity was assessed by measuring the extracellular activity of the LDH enzyme using the Cytotoxicity Detection Kit (MilliporeSigma, Burlington, MA, USA) as previously described. The percentage of LDH release relative to the untreated (negative) and Triton X-100 (positive, 100% cytotoxicity) control was assessed for at least three biological replicates and recorded as percent cytotoxicity.
# [14] = test system: human bronchial epithelial (HBE) cells; assay: LDH release cytotoxicity assay; format: cell-based; details: HBE cells (16HBE14o-); at the highest concentrations tested (5 and 10 μM); relative to Triton X-100 control
# Protocol: Immortalized human bronchial epithelial (HBE) cells (16HBE14o-) were used for in vitro cytotoxicity experiments as described elsewhere.
# as §6
Compound,MIC [1] [µM],MIC [2] [µM],MIC [3] [µM],MIC [4] [µM],MIC [5] [µM],MBIC95 [6] [µM],MIC [7] [µM],MBIC95 [8] [µg/mL],MIC [9] [µM],MIC [10] [µM],MIC [11] [µM],Tissue damage or peptide precipitation at the site of injection [12],Cytotoxicity (LDH release) [13],"MIC ([4]; S. Typhimurium, microdilution in MHB, value in brackets of Table S4) [µg/mL]",Cytotoxicity (LDH release) [14]
CC(C)C[C@H](NC(=O)[C@H](C)NC(=O)[C@@H](NC(=O)[C@H](CC(N)=O)NC(=O)[C@H](CCCNC(=N)N)NC(=O)CNC(=O)[C@@H](NC(=O)[C@H](CCCCN)NC(=O)[C@H](CCCNC(=N)N)NC(=O)[C@H](Cc1c[nH]c2ccccc12)NC(=O)[C@H](CC(N)=O)NC(=O)[C@@H](NC(=O)[C@H](CCCNC(=N)N)NC(=O)[C@@H](N)CCCCN)C(C)C)C(C)C)[C@@H](C)O)C(=O)NCC(=O)N[C@@H](C)C(=O)N[C@@H](CO)C(=O)N[C@@H](Cc1ccc(O)cc1)C(=O)N[C@H](C(=O)N[C@@H](CC(C)C)C(=O)N[C@@H](CO)C(=O)N[C@@H](Cc1ccccc1)C(=O)N[C@@H](CC(C)C)C(=O)NCC(=O)O)C(C)C [As-CATH7] (H-KRVNWRKVGRNTALGASYVLSFLG-OH),>64,4,0.25,2,1,32,2,> 172,0.5,4,>64,,,,
CSCC[C@H](NC(=O)[C@@H](NC(=O)[C@H](Cc1ccc(O)cc1)NC(=O)[C@H](CO)NC(=O)[C@H](C)NC(=O)CNC(=O)[C@H](CC(C)C)NC(=O)CNC(=O)[C@@H](NC(=O)[C@H](CCCCN)NC(=O)[C@H](CCCNC(=N)N)NC(=O)[C@H](Cc1c[nH]c2ccccc12)NC(=O)[C@H](CC(N)=O)NC(=O)[C@@H](NC(=O)[C@H](CCCNC(=N)N)NC(=O)[C@@H](N)CCCCN)C(C)C)C(C)C)C(C)C)C(=O)N[C@@H](CO)C(=O)N[C@@H](Cc1c[nH]c2ccccc12)C(=O)N[C@@H](CC(C)C)C(=O)NCC(=O)O [Gg-CATH7] (H-KRVNWRKVGLGASYVMSWLG-OH),,,,4,,,,> 148,2,,,,,,
CC[C@H](C)[C@H](NC(=O)[C@H](C)NC(=O)CNC(=O)[C@H](CC(N)=O)NC(=O)[C@H](CC(C)C)NC(=O)[C@@H](NC(=O)[C@H](CCCCN)NC(=O)[C@H](CCCCN)NC(=O)[C@H](Cc1c[nH]c2ccccc12)NC(=O)[C@H](Cc1c[nH]c2ccccc12)NC(=O)[C@H](CCCCN)NC(=O)[C@H](CCCNC(=N)N)NC(=O)[C@H](CCCNC(=N)N)NC(=O)[C@@H](N)[C@@H](C)O)C(C)C)C(=O)N[C@@H](CCCCN)C(=O)N[C@H](C(=O)N[C@@H](C)C(=O)N1CCC[C@H]1C(=O)N[C@@H](Cc1ccc(O)cc1)C(=O)N[C@H](C(=O)N[C@@H](CC(C)C)C(=O)N[C@@H](CC(=O)O)C(=O)O)[C@@H](C)CC)[C@@H](C)CC [Gg-CATH5] (H-TRRKWWKKVLNGAIKIAPYILD-OH),>64,1,0.5,,0.5,32,4,,,1,8,,,,
CC[C@H](C)[C@H](NC(=O)[C@H](CCCCN)NC(=O)[C@H](CCC(=O)O)NC(=O)[C@H](CCCCN)NC(=O)[C@H](CO)NC(=O)[C@H](CCCCN)NC(=O)[C@H](CCCNC(=N)N)NC(=O)[C@H](Cc1ccccc1)NC(=O)[C@H](Cc1ccccc1)NC(=O)[C@H](CC(=O)O)NC(=O)CNC(=O)[C@H](CC(C)C)NC(=O)[C@@H](N)CC(C)C)C(=O)NCC(=O)N[C@@H](CCCCN)C(=O)N[C@@H](CCC(=O)O)C(=O)N[C@@H](Cc1ccccc1)C(=O)N[C@@H](CCCCN)C(=O)N[C@@H](CCCNC(=N)N)C(=O)N[C@H](C(=O)N[C@H](C(=O)N[C@@H](CCC(N)=O)C(=O)N[C@@H](CCCNC(=N)N)C(=O)N[C@H](C(=O)N[C@@H](CCCCN)C(=O)N[C@@H](CC(=O)O)C(=O)N[C@@H](Cc1ccccc1)C(=O)N[C@@H](CC(C)C)C(=O)N[C@@H](CCCNC(=N)N)C(=O)N[C@@H](CC(N)=O)C(=O)N[C@@H](CC(C)C)C(=O)N[C@H](C(=O)N1CCC[C@H]1C(=O)N[C@@H](CCCNC(=N)N)C(=O)N[C@H](C(=O)N[C@@H](CCC(=O)O)C(=O)N[C@@H](CO)C(=O)O)[C@@H](C)O)C(C)C)[C@@H](C)CC)C(C)C)[C@@H](C)CC [LL-37],,,,,,,,,,,,no evidence of tissue damage or peptide precipitation,moderately cytotoxic,72,moderately cytotoxic
"VRLIVAVRIWRR-NH2 [IDR-1018, immunomodulatory peptide used as control]",,,,,,,,,,,,,low cytotoxicity,,low cytotoxicity
CC[C@H](C)[C@H](NC(=O)[C@H](Cc1ccc(O)cc1)NC(=O)[C@@H]1CCCN1C(=O)[C@H](CC(C)C)NC(=O)[C@H](CC(C)C)NC(=O)[C@H](CCCCN)NC(=O)[C@H](CC(C)C)NC(=O)[C@H](C)NC(=O)[C@@H](NC(=O)[C@H](CCCNC(=N)N)NC(=O)CNC(=O)[C@@H](NC(=O)[C@H](CCCCN)NC(=O)[C@H](C)NC(=O)[C@H](Cc1c[nH]c2ccccc12)NC(=O)[C@H](CC(N)=O)NC(=O)[C@@H](NC(=O)[C@H](CCCNC(=N)N)NC(=O)[C@@H](N)CCCCN)C(C)C)C(C)C)[C@@H](C)O)C(=O)N[C@@H](Cc1ccccc1)C(=O)NCC(=O)O [As-CATH8] (H-KRVNWAKVGRTALKLLPYIFG-OH),>64,0.5,0.25,1,0.5,1,1,,0.5,1,4,,,,
